According to patent publication EP4467141A1, “PYRAZOLO-QUINOLINES AS SELECTIVE INHIBITORS OF GENOTOXIC STRESS-INDUCED IKK/NF- KB PATHWAYS FOR CANCER THERAPY” (Max-Delbrück-Centrum für Molekulare Medizin in der …, priority 2023, dated 2024):

Tests used:
Experiment in all cases: Kinase panel study
Format in all cases: biochemical
Conditions in all cases: read-out: Percentage of inhibition; for inhibition at 1 µM: 1000nM; for inhibition at 10 µM: 10000nM
ROCK2 = molecular target: T1, ROCK2 (Homo sapiens, UniProt O75116)
T1 construct: purchased Thermo Fisher Scientific
Method in brief: (§1)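 Outsourced panel screen. Format: ZLyte or Adapta, run per the manufacturer's procedures. Read-out: inhibition (%) at a single dose of 10 µM or 1 µM; IC50s also generated.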

CDC42 BPA (MRCKA) = molecular target: T2, CDC42 BPA (MRCKA) (Homo sapiens, UniProt Q5VT25)
T2 construct: purchased Thermo Fisher Scientific
T2 sequence (Q5VT25 whole entry): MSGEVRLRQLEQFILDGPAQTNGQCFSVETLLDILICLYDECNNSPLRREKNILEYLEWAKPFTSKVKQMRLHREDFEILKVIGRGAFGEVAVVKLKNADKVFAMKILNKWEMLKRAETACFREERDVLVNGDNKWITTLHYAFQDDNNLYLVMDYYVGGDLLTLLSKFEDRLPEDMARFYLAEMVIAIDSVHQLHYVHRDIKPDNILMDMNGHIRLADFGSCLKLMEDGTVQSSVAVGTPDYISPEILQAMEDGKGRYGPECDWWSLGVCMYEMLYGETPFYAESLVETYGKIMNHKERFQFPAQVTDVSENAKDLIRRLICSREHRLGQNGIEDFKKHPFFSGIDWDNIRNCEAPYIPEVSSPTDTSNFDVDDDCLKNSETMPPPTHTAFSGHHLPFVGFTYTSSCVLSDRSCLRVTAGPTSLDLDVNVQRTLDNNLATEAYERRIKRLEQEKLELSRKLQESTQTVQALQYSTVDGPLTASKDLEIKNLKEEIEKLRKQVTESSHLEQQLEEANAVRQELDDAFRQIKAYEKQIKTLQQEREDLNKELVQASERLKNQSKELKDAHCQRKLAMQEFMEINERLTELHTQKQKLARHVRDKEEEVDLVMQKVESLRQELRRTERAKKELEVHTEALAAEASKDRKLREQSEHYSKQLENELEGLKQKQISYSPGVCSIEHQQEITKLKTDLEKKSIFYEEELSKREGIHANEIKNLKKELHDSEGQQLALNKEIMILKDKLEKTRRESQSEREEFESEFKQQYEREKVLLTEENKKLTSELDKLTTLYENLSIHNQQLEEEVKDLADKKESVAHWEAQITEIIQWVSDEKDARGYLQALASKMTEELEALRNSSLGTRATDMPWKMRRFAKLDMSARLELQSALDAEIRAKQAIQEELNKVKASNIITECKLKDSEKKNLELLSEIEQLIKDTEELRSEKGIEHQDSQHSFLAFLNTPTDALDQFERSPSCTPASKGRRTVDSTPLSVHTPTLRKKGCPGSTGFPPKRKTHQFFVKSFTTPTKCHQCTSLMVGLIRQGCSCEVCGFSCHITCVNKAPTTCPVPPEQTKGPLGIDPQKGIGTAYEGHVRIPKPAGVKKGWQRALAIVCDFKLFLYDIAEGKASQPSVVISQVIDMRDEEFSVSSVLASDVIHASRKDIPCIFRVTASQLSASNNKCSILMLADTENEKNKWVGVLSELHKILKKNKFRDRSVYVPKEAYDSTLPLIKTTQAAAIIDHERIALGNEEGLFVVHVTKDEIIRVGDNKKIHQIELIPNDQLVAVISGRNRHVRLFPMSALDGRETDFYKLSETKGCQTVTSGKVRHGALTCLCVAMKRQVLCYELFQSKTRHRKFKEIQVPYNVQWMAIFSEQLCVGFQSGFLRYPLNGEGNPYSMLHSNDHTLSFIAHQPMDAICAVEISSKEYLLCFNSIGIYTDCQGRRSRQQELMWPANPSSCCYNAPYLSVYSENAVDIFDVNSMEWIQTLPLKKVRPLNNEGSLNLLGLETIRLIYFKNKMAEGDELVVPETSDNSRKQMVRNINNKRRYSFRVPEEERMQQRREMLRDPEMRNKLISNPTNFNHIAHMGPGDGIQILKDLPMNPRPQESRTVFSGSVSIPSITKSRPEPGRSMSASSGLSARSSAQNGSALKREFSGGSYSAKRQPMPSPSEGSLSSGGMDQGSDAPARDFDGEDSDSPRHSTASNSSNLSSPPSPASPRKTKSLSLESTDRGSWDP
Method in brief: as §1

RPS6KB2 (p70S6Kb) = molecular target: T3, RPS6KB2 (p70S6Kb) (Homo sapiens, UniProt Q9UBS0)
T3 construct: purchased Thermo Fisher Scientific
Method in brief: as §1

AMPK (A2/B1/G3) = molecular target: T4, AMPK (A2/B1/G3) (Homo sapiens, UniProt P54646)
T4 construct: purchased Thermo Fisher Scientific
Method in brief: as §1

STK22D (TSSK1) = molecular target: T5, STK22D (TSSK1) (Homo sapiens, UniProt Q9BXA7)
T5 construct: purchased Thermo Fisher Scientific
T5 sequence (Q9BXA7 1-367): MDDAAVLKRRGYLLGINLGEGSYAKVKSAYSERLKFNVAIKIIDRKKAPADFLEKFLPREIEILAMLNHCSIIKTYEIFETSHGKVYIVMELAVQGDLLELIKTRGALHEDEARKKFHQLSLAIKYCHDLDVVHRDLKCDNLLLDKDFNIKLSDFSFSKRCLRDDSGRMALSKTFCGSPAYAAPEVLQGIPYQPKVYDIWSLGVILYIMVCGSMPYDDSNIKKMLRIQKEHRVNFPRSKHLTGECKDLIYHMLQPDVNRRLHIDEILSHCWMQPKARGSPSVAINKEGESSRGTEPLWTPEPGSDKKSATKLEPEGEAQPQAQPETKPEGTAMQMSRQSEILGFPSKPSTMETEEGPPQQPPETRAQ
Method in brief: as §1

DYRK3 = molecular target: T6, DYRK3 (Homo sapiens, UniProt O43781)
T6 construct: purchased Thermo Fisher Scientific
T6 sequence (O43781 1-588): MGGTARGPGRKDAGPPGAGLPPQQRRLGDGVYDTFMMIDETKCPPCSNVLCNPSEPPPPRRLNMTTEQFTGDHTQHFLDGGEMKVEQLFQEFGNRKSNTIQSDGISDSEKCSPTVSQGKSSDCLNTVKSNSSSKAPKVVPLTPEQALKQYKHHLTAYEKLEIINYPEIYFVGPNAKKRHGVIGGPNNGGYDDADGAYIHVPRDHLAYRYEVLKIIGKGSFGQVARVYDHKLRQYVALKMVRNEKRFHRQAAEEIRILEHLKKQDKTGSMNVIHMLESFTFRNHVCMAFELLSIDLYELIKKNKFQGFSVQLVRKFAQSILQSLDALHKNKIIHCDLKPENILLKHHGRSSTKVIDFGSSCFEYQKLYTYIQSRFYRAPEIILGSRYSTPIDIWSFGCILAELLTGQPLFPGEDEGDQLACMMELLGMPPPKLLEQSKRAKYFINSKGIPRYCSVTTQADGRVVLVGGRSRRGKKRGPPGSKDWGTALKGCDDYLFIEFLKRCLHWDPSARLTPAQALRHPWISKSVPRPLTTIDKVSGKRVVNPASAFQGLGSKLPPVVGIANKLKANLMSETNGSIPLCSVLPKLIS
Method in brief: as §1

SRPK2 = molecular target: T7, SRPK2 (Homo sapiens, UniProt P78362)
T7 construct: purchased Thermo Fisher Scientific
T7 sequence (P78362 whole entry): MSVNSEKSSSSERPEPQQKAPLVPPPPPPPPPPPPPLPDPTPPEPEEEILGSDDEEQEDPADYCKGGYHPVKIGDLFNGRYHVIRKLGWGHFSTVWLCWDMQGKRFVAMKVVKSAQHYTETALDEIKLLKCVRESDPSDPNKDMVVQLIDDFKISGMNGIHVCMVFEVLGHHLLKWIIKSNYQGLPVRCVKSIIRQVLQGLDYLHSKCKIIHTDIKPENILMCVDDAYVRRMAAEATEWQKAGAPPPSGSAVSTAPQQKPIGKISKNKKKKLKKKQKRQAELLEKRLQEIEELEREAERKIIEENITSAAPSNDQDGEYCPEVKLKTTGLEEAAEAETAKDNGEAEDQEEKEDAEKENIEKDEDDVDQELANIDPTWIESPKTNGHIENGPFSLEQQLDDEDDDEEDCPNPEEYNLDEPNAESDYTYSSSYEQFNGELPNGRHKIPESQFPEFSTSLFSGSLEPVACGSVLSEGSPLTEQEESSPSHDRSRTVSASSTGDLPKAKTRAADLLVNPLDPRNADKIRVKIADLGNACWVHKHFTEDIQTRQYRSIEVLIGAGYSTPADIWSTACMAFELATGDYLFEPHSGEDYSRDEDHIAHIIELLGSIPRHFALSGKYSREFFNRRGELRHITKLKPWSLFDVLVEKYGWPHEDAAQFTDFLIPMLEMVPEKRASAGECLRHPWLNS
Method in brief: as §1

EGFR (ErbB1) T790M L858R = molecular target: T8, EGFR (ErbB1) T790M L858R (Homo sapiens, UniProt P00533, L858R/T790M)
T8 construct: purchased Thermo Fisher Scientific
Method in brief: as §1

TEK (TIE2) Y897S = molecular target: T9, TEK (TIE2) Y897S (Homo sapiens, UniProt Q02763, Y897S)
T9 construct: purchased Thermo Fisher Scientific
Method in brief: as §1

NIM1K = molecular target: T10, NIM1K (Homo sapiens, UniProt Q8IY84)
T10 construct: purchased Thermo Fisher Scientific
T10 sequence (Q8IY84 whole entry): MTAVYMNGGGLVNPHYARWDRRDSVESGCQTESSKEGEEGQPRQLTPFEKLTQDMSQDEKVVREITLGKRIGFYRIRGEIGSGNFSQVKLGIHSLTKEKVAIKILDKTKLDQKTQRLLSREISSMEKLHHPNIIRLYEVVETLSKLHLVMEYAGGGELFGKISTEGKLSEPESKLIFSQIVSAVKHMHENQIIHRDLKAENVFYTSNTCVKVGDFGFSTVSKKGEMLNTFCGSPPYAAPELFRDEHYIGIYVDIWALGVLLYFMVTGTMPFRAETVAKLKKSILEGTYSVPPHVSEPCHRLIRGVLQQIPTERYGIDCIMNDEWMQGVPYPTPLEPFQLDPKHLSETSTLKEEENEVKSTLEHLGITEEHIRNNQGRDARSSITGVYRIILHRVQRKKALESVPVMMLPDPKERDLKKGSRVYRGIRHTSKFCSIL
Method in brief: as §1

EGFR (ErbB1) L858R = molecular target: T11, EGFR (ErbB1) L858R (Homo sapiens, UniProt P00533, L858R)
T11 construct: purchased Thermo Fisher Scientific
T11 sequence (P00533 25-1210 L858R): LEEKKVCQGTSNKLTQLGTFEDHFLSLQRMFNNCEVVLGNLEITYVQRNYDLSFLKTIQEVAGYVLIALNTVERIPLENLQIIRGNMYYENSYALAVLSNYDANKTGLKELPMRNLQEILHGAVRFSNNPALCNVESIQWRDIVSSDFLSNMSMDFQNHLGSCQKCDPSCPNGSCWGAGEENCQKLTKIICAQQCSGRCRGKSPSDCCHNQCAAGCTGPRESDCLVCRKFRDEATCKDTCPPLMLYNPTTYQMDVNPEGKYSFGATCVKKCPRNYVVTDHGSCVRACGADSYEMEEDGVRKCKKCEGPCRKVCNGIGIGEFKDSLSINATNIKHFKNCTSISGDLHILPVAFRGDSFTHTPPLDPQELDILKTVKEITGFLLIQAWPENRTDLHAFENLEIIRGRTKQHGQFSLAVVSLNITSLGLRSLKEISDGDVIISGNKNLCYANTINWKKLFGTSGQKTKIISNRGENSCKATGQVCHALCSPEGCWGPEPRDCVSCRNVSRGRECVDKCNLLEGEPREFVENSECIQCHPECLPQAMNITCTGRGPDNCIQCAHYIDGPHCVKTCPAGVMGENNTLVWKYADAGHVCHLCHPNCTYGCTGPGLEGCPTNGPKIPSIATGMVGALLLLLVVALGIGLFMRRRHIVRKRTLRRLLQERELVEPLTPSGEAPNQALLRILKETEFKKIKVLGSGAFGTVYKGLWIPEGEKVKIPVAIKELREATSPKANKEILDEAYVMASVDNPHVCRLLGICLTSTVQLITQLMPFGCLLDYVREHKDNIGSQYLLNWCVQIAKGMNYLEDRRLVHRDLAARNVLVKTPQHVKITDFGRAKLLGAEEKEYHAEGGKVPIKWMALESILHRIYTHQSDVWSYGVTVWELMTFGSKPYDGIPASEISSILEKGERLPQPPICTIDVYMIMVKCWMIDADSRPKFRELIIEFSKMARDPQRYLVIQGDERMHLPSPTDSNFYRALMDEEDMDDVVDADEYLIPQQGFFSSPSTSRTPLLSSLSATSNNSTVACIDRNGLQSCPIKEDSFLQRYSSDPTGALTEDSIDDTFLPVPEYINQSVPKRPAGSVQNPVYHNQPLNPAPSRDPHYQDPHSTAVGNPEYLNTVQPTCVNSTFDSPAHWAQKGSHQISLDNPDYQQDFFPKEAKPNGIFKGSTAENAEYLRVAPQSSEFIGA
Method in brief: as §1

PAK4 = molecular target: T12, PAK4 (Homo sapiens, UniProt O96013)
T12 construct: purchased Thermo Fisher Scientific
Method in brief: as §1

PIM3 = molecular target: T13, PIM3 (Homo sapiens, UniProt Q86V86)
T13 construct: purchased Thermo Fisher Scientific
Method in brief: as §1

FER = molecular target: T14, FER (Homo sapiens, UniProt P16591)
T14 construct: purchased Thermo Fisher Scientific
T14 sequence (P16591 whole entry): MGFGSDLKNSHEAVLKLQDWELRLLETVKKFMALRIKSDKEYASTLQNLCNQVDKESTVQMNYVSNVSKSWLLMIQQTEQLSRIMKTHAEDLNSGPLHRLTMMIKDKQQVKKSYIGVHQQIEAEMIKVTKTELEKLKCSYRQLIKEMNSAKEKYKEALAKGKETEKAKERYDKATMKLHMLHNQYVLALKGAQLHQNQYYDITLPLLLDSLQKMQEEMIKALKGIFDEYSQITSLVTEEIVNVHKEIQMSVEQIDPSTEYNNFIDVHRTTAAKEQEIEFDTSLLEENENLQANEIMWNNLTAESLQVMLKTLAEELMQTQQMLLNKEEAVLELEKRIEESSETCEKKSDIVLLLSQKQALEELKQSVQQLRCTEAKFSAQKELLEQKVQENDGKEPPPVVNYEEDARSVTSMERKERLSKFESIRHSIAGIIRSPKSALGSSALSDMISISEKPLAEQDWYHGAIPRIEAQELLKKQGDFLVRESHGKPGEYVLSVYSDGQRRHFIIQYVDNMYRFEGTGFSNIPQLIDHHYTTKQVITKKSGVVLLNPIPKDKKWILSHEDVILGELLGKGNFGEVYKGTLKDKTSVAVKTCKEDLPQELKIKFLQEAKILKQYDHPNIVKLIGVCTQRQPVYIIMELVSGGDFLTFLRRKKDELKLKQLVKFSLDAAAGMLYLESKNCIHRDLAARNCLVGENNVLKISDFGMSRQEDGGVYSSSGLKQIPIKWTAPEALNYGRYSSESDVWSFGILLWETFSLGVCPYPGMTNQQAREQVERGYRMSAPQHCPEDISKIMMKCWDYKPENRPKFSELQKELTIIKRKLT
Method in brief: as §1

SMILES | inhibition at 1 µM (ROCK2) [%] | inhibition at 10 µM (ROCK2) [%] | inhibition at 1 µM (CDC42 BPA (MRCKA)) [%] | inhibition at 10 µM (CDC42 BPA (MRCKA)) [%] | inhibition at 1 µM (RPS6KB2 (p70S6Kb)) [%] | inhibition at 10 µM (RPS6KB2 (p70S6Kb)) [%] | inhibition at 1 µM (AMPK (A2/B1/G3)) [%] | inhibition at 10 µM (AMPK (A2/B1/G3)) [%] | inhibition at 1 µM (STK22D (TSSK1)) [%] | inhibition at 10 µM (STK22D (TSSK1)) [%] | inhibition at 1 µM (DYRK3) [%] | inhibition at 10 µM (DYRK3) [%] | inhibition at 1 µM (SRPK2) [%] | inhibition at 10 µM (SRPK2) [%] | inhibition at 1 µM (EGFR (ErbB1) T790M L858R) [%] | inhibition at 10 µM (EGFR (ErbB1) T790M L858R) [%] | inhibition at 1 µM (TEK (TIE2) Y897S) [%] | inhibition at 10 µM (TEK (TIE2) Y897S) [%] | inhibition at 1 µM (NIM1K) [%] | inhibition at 10 µM (NIM1K) [%] | also measured
COc1ccc2c(c1OC)c(=O)n1c3ccc(O)cc3c3ccnc2c31 [MW01, 5-Hydroxy-10,11-dimethoxy-9H-benzo[c]indolo[3,2,1-ij][1,5]naphthyridin-9-one] | 14 | 18 | 11 | 15 | 7 | 1 | -2 | 12 | 11 | 22 | 17 | 43 | -2 | 0 | 9 | 29 | -14 | -10 | 7 | 13 | inhibition at 1 µM (EGFR (ErbB1) L858R): 3%; inhibition at 10 µM (EGFR (ErbB1) L858R): 5%; inhibition at 1 µM (PAK4): 13%; inhibition at 10 µM (PAK4): 20%; inhibition at 1 µM (PIM3): 22%; inhibition at 10 µM (PIM3): 42%; inhibition at 1 µM (FER): 11%; inhibition at 10 µM (FER): 25%
COc1ccc2cc3c(N)nn(C(=O)c4cccc(N(C)C)c4)c3nc2c1 [MW05, (3-Amino-7-methoxypyrazolo[3,4-b]quinolin-1-yl)-[3-(dimethylamino)phenyl]methanone] | 14 | 4 | 9 | 2 | 3 | 15 | 0 | -3 | 2 | 5 | 5 | 7 | 4 | 10 | -5 | 10 | -18 | -11 | 7 | 2 | inhibition at 1 µM (EGFR (ErbB1) L858R): 6%; inhibition at 10 µM (EGFR (ErbB1) L858R): 16%; inhibition at 1 µM (PAK4): 11%; inhibition at 10 µM (PAK4): 15%; inhibition at 1 µM (PIM3): 11%; inhibition at 10 µM (PIM3): 2%; inhibition at 1 µM (FER): 7%; inhibition at 10 µM (FER): 0%
